Structures can show the parent of a compound that is named as a salt.
Columns and labels:
Format in all cases: cell-based
[1] = tested on: Salmonella typhimurium 010; test: Ex.2 colony coloration, 5-bromo-3-indolyl nonanoate, methanol/bile salts, MacConkey; for intensity of coloration: key: 0: no activity; 0.1: trace of coloration; 0.5: very pale coloration; 1: distinct coloration of low intensity; 2: clear coloration of medium intensity; 3: intense coloration; 4: very intense coloration
Description: The esterase substrate tested is 5-bromo-3-indolyl nonanoate. A 25 g/l stock solution of substrate is prepared in methanol to which 5 g/l of bile salts have been added. A sufficient volume is added to a supercooled MacConkey medium (without neutral red) to give a substrate concentration of 500 mg/l.
(§1) Microorganisms originating from the Applicant's collection were inoculated onto this medium from a 0.5 McFarland suspension by isolation in three quadrants. The dishes were incubated at 37° C. for 48 hours. The colonies formed were examined visually after 24 and 48 hours of incubation. The coloration of these colonies and the intensity of this coloration were noted.
(§2) The intensity of coloration corresponds to an arbitrary scale defined as follows:

Listeria innocua 029 = test: Ex.3 colony coloration, 5-bromo-4-chloro-3-indolyl nonanoate 250 mg/l, DMSO/Tween 20; note: key: 0: no activity; 0.1: trace of coloration; 0.5: very pale coloration; 1: distinct coloration of low intensity; 2: clear coloration of medium intensity; 3: intense coloration; 4: very intense coloration
Description: (§3) The esterase substrate tested is 5-bromo-4-chloro-3-indolyl nonanoate. A 40 g/l stock solution of substrate is prepared in a mixture of 40% dimethyl sulfoxide and 60% Tween 20. A sufficient volume is added to a supercooled MacConkey medium (without neutral red) to give a substrate concentration of 250 mg/l.
as §1, §2

Candida tropicalis 030 = test: as above; note: key: 0: no activity; 0.1: trace of coloration; 0.5: very pale coloration; 1: distinct coloration of low intensity; 2: clear coloration of medium intensity; 3: intense coloration; 4: very intense coloration
Description: as §3, §1, §2

CCCCC(CC)CCC(CC(C)C)OS(=O)(=O)O (stereo not drawn) [Tergitol 4, 7-ethyl-2-methyl-4-undecanoate hydrogensulfate or its sodium salt]
color ([1]; 2 ml/l, 24 h): gray
intensity of coloration ([1]; 2 ml/l, 24 h): 2
color ([1]; 2 ml/l, 48 h): gray
intensity of coloration ([1]; 2 ml/l, 48 h): 2
color ([1]; 4 ml/l, 24 h): gray
intensity of coloration ([1]; 4 ml/l, 24 h): 2
color ([1]; 4 ml/l, 48 h): gray
intensity of coloration ([1]; 4 ml/l, 48 h): 3
color ([1]; 8 ml/l, 24 h): gray
intensity of coloration ([1]; 8 ml/l, 24 h): 3
color ([1]; 8 ml/l, 48 h): gray
intensity of coloration ([1]; 8 ml/l, 48 h): 3
color ([1]; 16 ml/l, 24 h): gray
intensity of coloration ([1]; 16 ml/l, 24 h): 3
color ([1]; 16 ml/l, 48 h): gray
intensity of coloration ([1]; 16 ml/l, 48 h): 3.5
intensity of coloration (Listeria innocua 029; 0.001 ml/l, 24 h): 0.1
intensity of coloration (Listeria innocua 029; 0.001 ml/l, 48 h): 2
intensity of coloration (Listeria innocua 029; 0.01 ml/l, 24 h): 0.1
intensity of coloration (Listeria innocua 029; 0.01 ml/l, 48 h): 2
intensity of coloration (Listeria innocua 029; 0.1 ml/l, 24 h): 0.1
intensity of coloration (Listeria innocua 029; 0.1 ml/l, 48 h): 2
intensity of coloration (Listeria innocua 029; 1 ml/l (1st col), 24 h): 0.1
intensity of coloration (Listeria innocua 029; 1 ml/l (1st col), 48 h): 2
intensity of coloration (Listeria innocua 029; 1 ml/l (2nd col), 24 h): 0.1
intensity of coloration (Listeria innocua 029; 1 ml/l (2nd col), 48 h): 2
intensity of coloration (Candida tropicalis 030; 0.001 ml/l, 24 h): 2
intensity of coloration (Candida tropicalis 030; 0.001 ml/l, 48 h): 3
intensity of coloration (Candida tropicalis 030; 0.01 ml/l, 24 h): 2
intensity of coloration (Candida tropicalis 030; 0.01 ml/l, 48 h): 3
intensity of coloration (Candida tropicalis 030; 0.1 ml/l, 24 h): 2
intensity of coloration (Candida tropicalis 030; 0.1 ml/l, 48 h): 3
intensity of coloration (Candida tropicalis 030; 1 ml/l (1st col), 24 h): 0.5
intensity of coloration (Candida tropicalis 030; 1 ml/l (1st col), 48 h): 3
intensity of coloration (Candida tropicalis 030; 1 ml/l (2nd col), 24 h): 0.5
intensity of coloration (Candida tropicalis 030; 1 ml/l (2nd col), 48 h): 3
